The results in this text go back to patent US20220031710A1, “USE OF ERK5 INHIBITORS FOR TREATING GLIOMAS IN PEDIATRIC SUBJECTS” (UNIVERSITY OF PITTSBURGH - OF THE COMMONWEALTH SYSTEM OF …, priority 2019, published 2022).

The subject of one experiment is MYC. Nature of the experiment: Western blot of phospho MYC S62 and total MYC in DIPG cells. It is filed as cell-based, human. Conditions: DIPG-IV cells with ERK5 knockdown (Dox); MG132 10 uM. On the procedure: (§1) Cell pellets were lysed in PLC lysis buffer containing protease and phosphatase inhibitors (Roche Inc.). Protein lysates were quantified using the bicinchoninic acid (BCA) assay (Pierce Chemical Co., Rockford, Ill.). 30 μg of total protein lysate was loaded in 10% SDS-PAGE gels and electrophoresed. Proteins were transferred to PVDF membranes using a semi-dry transfer apparatus (Bio-Rad). Membranes were blocked for one hour and probed for various proteins overnight in 5% non-fat milk or 5% BSA in Tris Buffered Saline Solution, 0.5% Tween-20 (TBST) or Phosphate Buffered Saline Solution with 0.5% Tween-20 (PBST). Membranes were washed for 5 mins in TBST (3×) and incubated with horseradish peroxidase-conjugated antibodies specific for the primary antibody (BioRad Laboratories, Inc., CA, USA). Binding was detected using Chemiluminescence Reagent Plus (PerkinElmer Inc., MA, USA).
(Immunoblotting shows a protein as a band on a membrane.)

Another experiment addresses T1, EZH2 (Homo sapiens, UniProt Q15910).
T1 construct: endogenous in cells; host or cells: H9 hESC-derived human neural stem cells
Nature of the experiment: Western blot of H3K27Me3, RAS activation and p16 in NSCs treated with EZH2 inhibitor. It is filed as cell-based. Conditions: GSK343 (504). On the procedure: RAS activity was measured using the RAS activation assay (Cell Signaling Technology, Cat #8814). Briefly, active Ras Detection GST-RAF1-RBD fusion protein was used to bind the activated form of GTP-bound RAS, which was then immunoprecipitated from 500 μg of total cell lysate with glutathione resin. RAS activation levels were then determined by western blot using a RAS Mouse mAb. Activated RAS immune-precipitate was normalized to total RAS from whole cell lysate.
as §1

The test system of the next experiment is NSCs. In words: Direct Trypan-Blue automated cell count of NSCs treated with EZH2 inhibitor. It is filed as cell-based, human. Conditions: GSK343 (504), over 5 days. As to the method:
Direct cell counts were performed using the Countess II FL Automated Cell Counter (ThermoFisher Scientific). Alamar blue viability (ThermoFisher Scientific) and the 5-bromo-2′-deoxyuridine (BrdU) incorporated cell proliferation assay (Cell Signaling Technology Cat #6813) were performed using the manufacturer's standard protocol. EC50 curve analysis was performed using raw fluorescent Alamar blue values that were inputted into PRISM 7.0. Drug concentrations were log 10 transformed and values normalized to percent viability with respect to vehicle treated cells. EC50 values were interpolated from a log inhibitor vs. normalized response with variable slope using a least square fit model.

Another experiment concerns RASAL1. Nature of the experiment: Western blot of RASAL1 after decitabine treatment. It is filed as cell-based, human. The settings on record: DIPG-007 and NSC H3K27M cells; 5 days; 1 μM. On the procedure: as §1

Where a SMILES comes first, the peptide text is derived from it. The star is where a group is joined. Cbz = O=C(OCc1ccccc1)*

T1 sequence (Q15910 whole entry): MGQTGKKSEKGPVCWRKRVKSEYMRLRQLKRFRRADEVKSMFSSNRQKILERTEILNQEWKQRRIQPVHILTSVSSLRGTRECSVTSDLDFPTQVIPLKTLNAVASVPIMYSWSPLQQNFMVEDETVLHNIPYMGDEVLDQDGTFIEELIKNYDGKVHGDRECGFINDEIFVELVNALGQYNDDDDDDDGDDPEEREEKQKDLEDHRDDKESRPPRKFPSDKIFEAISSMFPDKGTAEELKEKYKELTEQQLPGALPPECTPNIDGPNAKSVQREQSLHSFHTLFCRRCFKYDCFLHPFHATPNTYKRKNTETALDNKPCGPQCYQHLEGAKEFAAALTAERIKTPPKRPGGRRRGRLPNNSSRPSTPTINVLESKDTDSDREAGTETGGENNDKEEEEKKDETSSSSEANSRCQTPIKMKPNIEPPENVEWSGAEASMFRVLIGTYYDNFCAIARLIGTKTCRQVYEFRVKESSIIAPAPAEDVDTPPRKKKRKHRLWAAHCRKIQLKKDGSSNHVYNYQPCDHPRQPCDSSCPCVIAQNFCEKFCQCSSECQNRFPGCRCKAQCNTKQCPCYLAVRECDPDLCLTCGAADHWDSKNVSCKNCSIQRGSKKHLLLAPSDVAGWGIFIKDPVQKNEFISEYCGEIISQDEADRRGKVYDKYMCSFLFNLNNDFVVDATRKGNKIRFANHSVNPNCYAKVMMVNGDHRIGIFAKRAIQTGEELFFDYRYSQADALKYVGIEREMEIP
T1 sequence (O75530 whole entry partner): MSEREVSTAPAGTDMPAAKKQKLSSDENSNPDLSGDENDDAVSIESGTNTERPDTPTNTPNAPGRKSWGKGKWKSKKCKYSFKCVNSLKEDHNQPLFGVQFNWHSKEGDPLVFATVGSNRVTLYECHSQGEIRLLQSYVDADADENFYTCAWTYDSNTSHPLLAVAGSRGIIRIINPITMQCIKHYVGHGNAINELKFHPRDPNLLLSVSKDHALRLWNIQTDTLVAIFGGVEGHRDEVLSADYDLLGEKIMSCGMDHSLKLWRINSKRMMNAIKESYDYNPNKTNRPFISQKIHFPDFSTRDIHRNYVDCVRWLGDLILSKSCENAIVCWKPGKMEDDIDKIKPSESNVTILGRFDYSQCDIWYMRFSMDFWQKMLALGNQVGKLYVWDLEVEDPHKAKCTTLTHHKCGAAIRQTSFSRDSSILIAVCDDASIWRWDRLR
T1 sequence (Q15022 whole entry partner): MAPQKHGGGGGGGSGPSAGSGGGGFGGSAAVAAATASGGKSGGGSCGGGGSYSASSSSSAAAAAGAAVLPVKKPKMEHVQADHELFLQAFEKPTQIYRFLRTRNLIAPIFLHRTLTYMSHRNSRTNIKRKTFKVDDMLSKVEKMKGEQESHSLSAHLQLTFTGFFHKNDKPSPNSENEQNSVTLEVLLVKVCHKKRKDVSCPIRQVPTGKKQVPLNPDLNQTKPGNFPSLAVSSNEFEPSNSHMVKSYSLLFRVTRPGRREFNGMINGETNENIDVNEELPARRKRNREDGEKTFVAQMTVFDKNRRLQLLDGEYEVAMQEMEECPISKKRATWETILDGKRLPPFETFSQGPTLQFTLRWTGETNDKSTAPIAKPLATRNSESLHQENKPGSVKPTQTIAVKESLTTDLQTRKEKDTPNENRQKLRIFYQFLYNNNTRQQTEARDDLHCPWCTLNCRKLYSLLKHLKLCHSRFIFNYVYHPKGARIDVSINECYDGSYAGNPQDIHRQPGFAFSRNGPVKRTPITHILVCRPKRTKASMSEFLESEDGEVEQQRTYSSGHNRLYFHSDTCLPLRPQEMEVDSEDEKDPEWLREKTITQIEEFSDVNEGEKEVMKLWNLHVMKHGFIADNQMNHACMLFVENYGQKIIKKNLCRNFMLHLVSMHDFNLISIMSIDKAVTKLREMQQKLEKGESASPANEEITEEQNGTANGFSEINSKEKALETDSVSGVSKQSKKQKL
T1 sequence (Q09028 whole entry partner): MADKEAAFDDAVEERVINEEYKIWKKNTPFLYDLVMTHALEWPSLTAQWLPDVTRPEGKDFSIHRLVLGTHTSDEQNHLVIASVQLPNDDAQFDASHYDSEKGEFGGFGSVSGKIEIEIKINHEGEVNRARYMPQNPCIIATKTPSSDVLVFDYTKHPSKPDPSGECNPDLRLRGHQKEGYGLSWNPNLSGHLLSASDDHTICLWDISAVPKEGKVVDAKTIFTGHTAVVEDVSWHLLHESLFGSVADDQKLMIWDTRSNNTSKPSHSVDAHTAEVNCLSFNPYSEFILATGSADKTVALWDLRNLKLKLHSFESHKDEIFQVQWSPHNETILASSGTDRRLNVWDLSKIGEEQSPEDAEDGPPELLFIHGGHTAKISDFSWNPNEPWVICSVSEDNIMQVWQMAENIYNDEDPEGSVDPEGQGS

`CC(C)C[C@@H](C=O)NC(=O)[C@H](CC(C)C)NC(=O)[C@H](CC(C)C)NC(=O)OCc1ccccc1` [MG132] (Cbz-Leu-Leu-Leu-aldehyde): the “protein expression of total MYC” value in the experiment on MYC is given as “restored”.

Regarding `CCCc1cc(C)[nH]c(=O)c1CNC(=O)c1cc(-c2ccnc(N3CCN(C)CC3)c2)cc2c1cnn2C(C)C` [GSK343], on EZH2, the “CDKN2A locus (p16 protein immunoblot)” value is listed as “activation of the CDKN2A locus”, the H3K27Me3 entry is “loss of H3K27Me3” and the “activated RAS” value was “reduced activated RAS”. In addition, the cell proliferation entry in the experiment with NSCs is given as “reduced cell proliferation”.

With `Nc1ncn([C@H]2C[C@H](O)[C@@H](CO)O2)c(=O)n1` [decitabine, 5-aza-2′-deoxycytidine], in the experiment with RASAL1, the “expression of RASAL1 protein” value is recorded as “restored”.
